Measured values as given in patent publication US9403806B1, “Cognition enhancing compounds and compositions, methods of making, and methods of treating” (NeuroSolis, Inc., priority 2010, dated 2016).

What was measured:
rat M3 receptors = target: T1, rat M3 receptors (Rattus norvegicus, UniProt P08483); test: PI turnover (inositol phosphate production) in M3-CHO cells; format: cell-based; settings: mean Smax relative to carbachol (100.0); CHO cells expressing rat M3
T1 construct: host or cells: CHO (M3-CHO)
Method: The medium was changed to 70 μL/well of inositol-free DMEM containing 2 mM glutamine, 10% FBS and 10 μCi/ml of [3H]-inositol (PE:cat # NET114A250UC), incubated overnight as above, then 100 μL of a solution of the test compound in HBSS containing 10 mM LiCl and 20 mM HEPES, pH 7.4 was added, incubation was continued for 60 min under the above conditions, and the test was stopped by removing the test compound and replacing with 100 μL of 50 mM formic acid in water at 4° C. […] The compounds in Table 1 are all dihydropyrimidine-oxadiazoles which vary only at the oxadiazole side chain.

[1] = Plasma concentration in rats, iontophoresis patch versus oral gavage; format: in vivo, Long Evans Hooded rat; settings: rat
Text: Two patches were made up, consisting (in order from the outer layer to the skin contacting surface, respectively): adhesive tape (Transpore, 27 mm wide, 3M), circular stainless steel electrodes (22 mm dia) with a central hole for a stainless steel machine screw to which the electrode wire was attached, and 2 layers of 3MM CHR filter paper (Cat #3030-861, Whatman International, Ltd).
The mid-dorsal area of a Long Evans Hooded rat (approximate weight, 320 grams), surgically prepared with a jugular vein catheter (Charles River), was shaved and the skin was then cleaned using an Electrode Prep Pad (Professional Disposables, Inc, Cat #B59800). […]
Blood (400 μl) was withdrawn from the catheters in each rat every 30 minutes, transferred to 1.5 ml centrifuge tubes containing heparin (15 units/tube), and the plasma was separated by centrifugation from the cellular components. The plasma samples were maintained at 4 deg C. until analyzed. […]
The ultra-filtrates were subjected to reverse-phase liquid chromatography using a 150×2.1 mm Agilent C8 reverse-phase column on a Shimadzu Prominence LC, eluting the MCD-386 with an isocratic flow of 2% acetonitrile+0.1% formic acid. The concentration of MCD-386 in the column effluent was measured using an Applied Biosystems API-3200 triple quadrupole mass spectrometer equipped with a Turbo V source (electrospray sample injection) system. […]

[2] = system: healthy male volunteer human subjects; test: Monitoring of cholinergic side effects in healthy volunteers; format: in vivo; settings: 6 subjects
Method: A single 5 mg capsule or 5×0.2 mg capsules (1 mg total dose) were administered orally to healthy male volunteer human subjects with 125 ml of water. Six such subjects receiving the 5 mg dose, and a different 6 subjects received the 1 mg dose.
Subjects were monitored, among other things, for typical signs of muscarinic cholinergic action, such as increased salivation, lachrimation and diaphoresis.

T1 sequence (P08483 whole entry): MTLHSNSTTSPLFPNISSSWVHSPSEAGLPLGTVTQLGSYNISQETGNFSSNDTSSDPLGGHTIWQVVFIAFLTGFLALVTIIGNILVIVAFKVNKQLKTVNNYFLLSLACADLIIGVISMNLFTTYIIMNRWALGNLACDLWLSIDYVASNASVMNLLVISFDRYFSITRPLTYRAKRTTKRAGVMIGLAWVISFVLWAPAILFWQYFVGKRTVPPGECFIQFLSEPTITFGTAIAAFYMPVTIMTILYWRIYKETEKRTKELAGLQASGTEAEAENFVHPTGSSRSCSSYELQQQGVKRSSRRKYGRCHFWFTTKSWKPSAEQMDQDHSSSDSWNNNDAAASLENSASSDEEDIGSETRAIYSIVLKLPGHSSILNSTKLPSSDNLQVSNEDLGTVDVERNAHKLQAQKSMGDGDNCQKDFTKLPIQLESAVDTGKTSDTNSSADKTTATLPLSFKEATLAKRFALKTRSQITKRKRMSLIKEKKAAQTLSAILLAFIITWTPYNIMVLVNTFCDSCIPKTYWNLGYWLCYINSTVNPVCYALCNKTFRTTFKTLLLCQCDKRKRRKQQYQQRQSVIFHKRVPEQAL

M3/CHO PI turnover Relative Mean Smax (rat M3 receptors): 46.4 | bioavailability by transdermal delivery versus oral administration [1]: up to three times higher | Plasma Concentration ([1]; iontophoresis patch, dose 3.2 mg/kg, 30 minutes): 848 nM
Compound: CCc1noc(C2CN=CNC2)n1 (centres unmarked) [MCD-386, 3-ethyl-5-(1,4,5,6-tetrahydropyrimidin-5-yl)-1,2,4-oxadiazole]
observable cholinergic side effects ([2]; 1 mg total oral dose cohort): none of the subjects in the 1 mg total dose cohort experienced any observable cholinergic side effects | observable cholinergic side effects ([2]; 5 mg oral dose cohort): four subjects showed signs of muscarinic cholinergic activity
